The results in this text go back to patent US20170368120A1, “Use of compositions of water/alcohol extracts of Antrodia cinnamomea cut-log wood cultivated fruiting body and solid-state cultivated mycelium as auxiliaries for anti-cancer agents” (Taiwan Leader Biotech Corp, priority 2016, published 2017).

The subject of series [1] is MKN45 gastric cancer cells. Kind of series: Gastric tumor growth in MKN45 tumor-bearing nude mice. Conditions: 5-FU injection. The class given is in vivo. From the text: In this example, the effects of the A. cinnamomea composition of solid-state cultivated mycelium water/alcohol extracts and cut-log wood cultivated fruiting body water/alcohol extracts on gastric tumor growth were further evaluated in an animal model. The test A. cinnamomea compositions included 5% FB/95% SC, 10% FB/90% SC, 20% FB/80% SC, and 40% FB/60% SC, respectively. The animal used in the experiment is an immune deficient mouse (nude mice) implanted MKN45 gastric cancer cells. 10 days after the cancer cell implantation, the animals were orally given the tested A. cinnamomea compositions (300 mg/kg/day) by oral gavage for 21 days. The treated animals were scarified. The tumor was isolated and weighted, as the key indicator for assessing the inhibition of tumor growth.

Series [2] deals with CFU-GM in bone marrow. Kind of series: CFU-GM colony test in bone marrow of 5-FU treated mice. The class given is in vivo, C57BL/6 mice. Conditions: 5-FU alone 200 mg/kg ip at first day; marrow at day 11. The method, then:
(§1) The effect of the A. cinnamomea composition (L) on recovering the blood cell reducing caused by the application of chemotherapy drug 5-FU was evaluated in the colony test of CFU-GM in bone marrow. C57BL/6 mice of eight-week old, purchased from the National Laboratory Animal Center, were used in the test. The tested animal groups included the control, 5-FU, 5FU+L, 5-FU+0.5L, 5-FU+0.25L and 5-FU+Angiotensin II (Aii) groups, with 6 mice in each group. After the intraperitoneal injection of 5-FU (200 mg/kg) at first day, the test drug A. cinnamomea composition (L) was orally administered to the animals, or the positive control drug Angiotensin II (Aii, 100 μg/kg) was intraperitoneally injected to the animals at day 4˜10. Dosages of the A. cinnamomea composition (L) were used as follow: 1× dose of 680 mg/kg, 0.5× dose of 340 mg/kg and 0.25× dose of 170 mg/kg. Whole blood was collected from cheek before sacrificing the animals at day 11, and the Complete Blood Count (CBC) was performed to record the number of blood cells, including white blood cells, red blood cells, lymphocytes and neutrophils in peripheral blood. The femur was removed from the sacrificed mouse at day 11 of the experiment. The bone marrow cells were collected for the cultivation of CFU-GM. Cells was cultured for 7 days, and the number of CFU-GM colonies was counted.

Series [3] has as its system Human gastric cancer MKN-45 cells. Kind of series: Auxiliary effect on 5-FU in MKN-45 tumor-bearing nude mice. The class given is in vivo, Balb/c nu/nu mice. Conditions: 5-FU alone 25 mg/kg ip three times a week. The method, then:
In this example, the auxiliary effect of the A. cinnamomea composition on the anti-tumor agent 5-FU was confirmed in an animal model. Balb/c nu/nu mice of six-week old, purchased from the National Laboratory Animal Center, were used in the test. The 5-FU (25 mg/kg, ip) treated group was used as positive group, with drug administration frequency of three times a week. The A. cinnamomea composition (L) of solid-state cultivated mycelium water/alcohol extract and cut-log wood cultivated fruiting body water/alcohol extract was orally administered to mice once a day with following dosages: 1× dose of 680 mg/kg, 0.5× dose of 340 mg/kg, 0.25× dose of 170 mg/kg and 0.125× dose of 85 mg/kg. If the mice had been injected with 5-FU, the L was orally treated four hours after the application of 5-FU. Human gastric cancer MKN-45 cells (3×10^6) were implanted into immune deficient nude mice, and the drug administration was started when the tumor size reached to 100˜200 mm^3. The tested animal groups included the control, 5-FU, 5FU+L, 5-FU+0.5L, 5-FU+0.25L and 5-FU+0.125L groups, with 8 mice in each group.

Series [4] relates to blood cells in peripheral blood. Kind of series: Complete Blood Count in 5-FU treated mice. The class given is in vivo, C57BL/6 mice. Conditions: 5-FU alone 200 mg/kg ip, compared to control. The method, then:
as §1

In the case of `O=c1[nH]cc(F)c(=O)[nH]1` [5-FU, 5-fluorouracil], the tumor weight entry in series [1] is given as “significant decrease in tumor weight”. In series [2], the CFU-GM colony number was 1,869 colonies/10^6 marrow cells. Moreover, the tumor weight in series [3] is on record as 0.85 g. Further, in series [4], the number of lymphocytes entry is “significantly reduced”, the number of neutrophils entry was “significantly reduced”, the “number of red blood cells” value is “significantly reduced” and the “number of white blood cells” value was “significantly reduced”.
